For one compound, implant volume and implant weight results are on record in patent publication US20060173062A1, “Use of selective cyclooxygenase-2 inhibitors for the treatment of endometriosis” (priority 2003, published 2006).

This test relates to rat uterine horn implants in the peritoneal cavity. Briefly: Rat model for endometriosis. Format: in vivo. To be noted: 14 days; for implant volume: FIG. 1; for implant weight: FIG. 2. An excerpt: FIG. 1 compares the mean volume of rat uterine horn implants in the peritoneal cavity of rats before and after 14 days of administration of a cyclooxygenase-2-selective inhibitor.
FIG. 2 compares the in mean weight of rat uterine horn implants in the peritoneal cavity of rats before and after 14 days of administration of a cyclooxygenase-2-selective inhibitor.
Rat Model for Endometriosis:
In this model 5×5 mm sections of rat uterine hom are implanted in the peritoneal cavity (extra uterine endometrial wall) of subject rats. Four weeks after transplantation of the endometrial tissues, rats were anesthetized with Telazol (20 mg/kg, IP, Fort Dodge Animal Health, Fort Dodge, Iowa), Oxymorphone (0.2 mg/kg SC, Henry Schein, Melville, N.Y.) and immobilized on a standard rat operating board. The surgical site was shaved and cleaned using three cycles of Betadine/alcohol or DuraPrep® (3M, St. Paul, Minn.). Using aseptic technique, an incision was made through the skin, SC and muscle layers. The growth of the explant was evaluated for size and acceptance/rejection. On gross examination, the endometrial implants appeared as uni-loculated (occasional as multilobulated) cystic masses filled with clear/light yellowish or dark brown serous fluid. In some instances, at the time of 2nd laparotomy, partial or complete adhesions from connective tissue, mesentry, and bowel to the implants were noted. In those instances, a careful separation was executed, avoiding the rupture the implants. While having a clear vision of the implants, the length, width and height of the implant was measured using a sterile Jameson Caliper (BRI, Rockville, Md.), and documented. The abdominal incisions were closed by using 4-0 chromic gut (Ethicon). The rats were observed until fully ambulatory.
More animals than required for the study were used for surgery. After the 2nd laparotomy, animals were assigned to control or treated groups in an attempt to equalize the endometrium implant size between groups. The rats bearing implant with clear/light yellowish fluid were used in study group selection. The rats bearing implant with dark brown fluid considered as hemorrhagic solid mass were excluded from the study.
Treatment with selected drug therapy started after 1 day of post-surgical recovery. Rats were given the test compound, the cyclooxygenase-2 selective inhibitor Compound A, or vehicle alone or Raloxifene (10 mpk) or Lupron Depot (1 mpk) for a period of 14 days. At the end of the 14-day treatment period, the animals were euthanized at pro-estrus cycle which was confirmed by vaginal smear. Necropsy involved opening the abdomen and evaluating the implant size. The implant and right uterine horn were excised for wet weighing.
Compound A has the following structure: [drawing 1] […]

Take `CS(=O)(=O)c1ccc(C2COC(=O)C2c2ccc(F)c(F)c2)cc1` (stereo not shown) [Compound A]: the implant volume entry (1 mpk, BID by oral gavage) is reported as “not significant at the 95 percent confidence level”; the implant volume entry (10 mpk, BD by oral gavage) was “reduce implant volume and weight to a significant degree at the 95 percent confidence level”. The implant weight entry is “not significant at the 95 percent confidence level” (1 mpk, BID by oral gavage); “reduce implant volume and weight to a significant degree at the 95 percent confidence level” (10 mpk, BD by oral gavage).
